In data set [1] the target is Lysine-specific demethylase 5B (Homo sapiens, UniProt Q9UGL1). In words: Inhibition of KDM5B (unknown origin) preincubated with enzyme.
Data set [2] has as its target Lysine-specific demethylase 5A/5B (Homo sapiens, UniProt P29375+Q9UGL1). Description: Inhibition of KDM5A/KDM5B in human ZR-75-1 cells assessed as increase in H3K4me3 level after 72 hrs by fluorometric immunoassay. The data set is classed as cell-based.
For data set [3], the target named is T1, Lysine-specific demethylase 2B (Homo sapiens, UniProt Q8NHM5).
T1 sequence (Q8NHM5 whole entry): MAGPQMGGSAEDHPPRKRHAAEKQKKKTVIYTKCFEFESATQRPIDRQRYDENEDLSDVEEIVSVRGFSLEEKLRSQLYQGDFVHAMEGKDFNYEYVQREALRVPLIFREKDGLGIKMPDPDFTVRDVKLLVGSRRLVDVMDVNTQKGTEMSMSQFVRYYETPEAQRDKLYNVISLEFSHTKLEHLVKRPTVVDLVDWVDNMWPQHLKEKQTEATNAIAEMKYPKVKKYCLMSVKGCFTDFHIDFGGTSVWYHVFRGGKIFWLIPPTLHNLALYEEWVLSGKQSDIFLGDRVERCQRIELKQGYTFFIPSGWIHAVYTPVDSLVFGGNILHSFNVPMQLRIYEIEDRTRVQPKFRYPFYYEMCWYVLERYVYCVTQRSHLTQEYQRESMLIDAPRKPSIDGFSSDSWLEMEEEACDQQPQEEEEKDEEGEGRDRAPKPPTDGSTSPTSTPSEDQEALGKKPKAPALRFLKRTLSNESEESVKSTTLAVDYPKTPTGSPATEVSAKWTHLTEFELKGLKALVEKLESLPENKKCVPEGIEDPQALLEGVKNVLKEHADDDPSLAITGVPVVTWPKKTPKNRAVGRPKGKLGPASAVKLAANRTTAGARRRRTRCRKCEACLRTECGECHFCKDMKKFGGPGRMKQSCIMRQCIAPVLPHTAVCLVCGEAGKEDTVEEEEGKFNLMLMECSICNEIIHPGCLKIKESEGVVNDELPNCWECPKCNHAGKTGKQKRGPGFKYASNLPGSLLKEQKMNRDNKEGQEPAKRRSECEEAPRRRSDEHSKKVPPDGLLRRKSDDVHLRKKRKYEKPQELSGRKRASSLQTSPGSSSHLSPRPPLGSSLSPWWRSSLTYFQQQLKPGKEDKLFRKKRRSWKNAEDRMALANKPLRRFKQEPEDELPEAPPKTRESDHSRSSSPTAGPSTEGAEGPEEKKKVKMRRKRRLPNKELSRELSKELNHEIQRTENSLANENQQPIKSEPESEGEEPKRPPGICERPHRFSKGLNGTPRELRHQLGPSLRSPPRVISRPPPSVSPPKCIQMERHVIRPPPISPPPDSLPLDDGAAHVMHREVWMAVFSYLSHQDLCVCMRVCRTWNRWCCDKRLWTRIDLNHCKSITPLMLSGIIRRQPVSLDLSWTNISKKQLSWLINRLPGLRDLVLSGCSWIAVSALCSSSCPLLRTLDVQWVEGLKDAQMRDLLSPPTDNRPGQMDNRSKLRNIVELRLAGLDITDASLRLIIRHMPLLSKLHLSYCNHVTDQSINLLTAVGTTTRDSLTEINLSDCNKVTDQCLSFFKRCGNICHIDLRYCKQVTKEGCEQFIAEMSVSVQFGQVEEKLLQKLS
In words: Inhibition of KDM2B (unknown origin).

Data set [4] has as its target T2, Lysine-specific demethylase 3A (Homo sapiens, UniProt Q9Y4C1).
T2 sequence (Q9Y4C1 whole entry): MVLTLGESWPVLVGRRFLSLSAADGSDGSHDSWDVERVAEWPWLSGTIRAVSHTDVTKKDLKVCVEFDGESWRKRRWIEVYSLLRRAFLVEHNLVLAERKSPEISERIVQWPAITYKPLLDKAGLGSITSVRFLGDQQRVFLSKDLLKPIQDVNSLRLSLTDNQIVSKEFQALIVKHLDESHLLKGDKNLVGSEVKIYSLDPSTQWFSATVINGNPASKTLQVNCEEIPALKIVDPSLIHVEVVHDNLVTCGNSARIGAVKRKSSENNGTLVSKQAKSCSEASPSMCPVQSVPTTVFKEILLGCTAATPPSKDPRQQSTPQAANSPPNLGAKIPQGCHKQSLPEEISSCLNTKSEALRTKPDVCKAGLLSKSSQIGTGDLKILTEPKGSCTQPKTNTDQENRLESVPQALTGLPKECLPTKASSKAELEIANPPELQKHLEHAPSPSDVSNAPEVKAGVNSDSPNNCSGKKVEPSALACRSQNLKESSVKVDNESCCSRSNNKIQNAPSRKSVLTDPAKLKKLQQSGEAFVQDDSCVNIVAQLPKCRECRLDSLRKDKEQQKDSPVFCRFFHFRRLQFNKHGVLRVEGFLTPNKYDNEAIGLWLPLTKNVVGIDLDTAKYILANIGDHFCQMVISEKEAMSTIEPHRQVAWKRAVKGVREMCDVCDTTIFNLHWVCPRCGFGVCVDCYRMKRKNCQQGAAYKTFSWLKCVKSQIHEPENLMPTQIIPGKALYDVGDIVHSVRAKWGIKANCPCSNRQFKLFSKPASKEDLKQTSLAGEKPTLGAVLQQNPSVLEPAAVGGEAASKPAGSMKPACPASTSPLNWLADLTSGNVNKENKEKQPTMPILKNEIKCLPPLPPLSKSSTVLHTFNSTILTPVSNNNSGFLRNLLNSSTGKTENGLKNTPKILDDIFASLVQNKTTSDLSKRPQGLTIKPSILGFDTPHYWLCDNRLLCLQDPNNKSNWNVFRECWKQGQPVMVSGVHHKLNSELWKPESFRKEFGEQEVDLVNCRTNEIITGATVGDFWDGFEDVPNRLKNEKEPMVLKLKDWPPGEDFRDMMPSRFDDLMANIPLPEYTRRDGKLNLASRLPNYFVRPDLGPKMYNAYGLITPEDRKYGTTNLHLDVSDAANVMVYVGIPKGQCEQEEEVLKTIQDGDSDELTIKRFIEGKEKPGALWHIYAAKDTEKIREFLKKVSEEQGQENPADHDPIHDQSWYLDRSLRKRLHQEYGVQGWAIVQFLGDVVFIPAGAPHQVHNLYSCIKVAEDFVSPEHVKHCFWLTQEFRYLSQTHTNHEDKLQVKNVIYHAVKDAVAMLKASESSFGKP
In words: Inhibition of KDM3A (unknown origin).

Data set [5] can be described thus: Oral bioavailability in CD-1 mouse at 10 mg/kg. The class given is ADME, organism-based. Particulars: in vivo.
The nature of data set [6]: Inhibition of CYP450 (unknown origin). The data set is classed as ADME. Particulars: human.
For another data set, the system named is Mus musculus. Description: In vivo inhibition of KDM5 in nude mouse xenografted with human MCF7 cells assessed as increase in H3K4me3 level in tumor at 75 mg/kg, po qd for 5 days measured up to 24 hrs post last dose by Western blot analysis. The class given is functional, organism-based.
Data set [7] is described as follows: Drug uptake in tumor of nude mouse xenografted with human MCF7 cells at 75 mg/kg, po qd for 5 days measured at 1 hr post last dose. The data set is classed as ADME, organism-based, Neoplasm. Particulars: in vivo. Background: A xenograft is tissue or cells of one species grown in another, often human tumour cells in immunodeficient mice.

Activity calls are given as the source filed them. No cut-off for these calls is given here.

Sequence of Lysine-specific demethylase 5B (Q9UGL1 whole entry): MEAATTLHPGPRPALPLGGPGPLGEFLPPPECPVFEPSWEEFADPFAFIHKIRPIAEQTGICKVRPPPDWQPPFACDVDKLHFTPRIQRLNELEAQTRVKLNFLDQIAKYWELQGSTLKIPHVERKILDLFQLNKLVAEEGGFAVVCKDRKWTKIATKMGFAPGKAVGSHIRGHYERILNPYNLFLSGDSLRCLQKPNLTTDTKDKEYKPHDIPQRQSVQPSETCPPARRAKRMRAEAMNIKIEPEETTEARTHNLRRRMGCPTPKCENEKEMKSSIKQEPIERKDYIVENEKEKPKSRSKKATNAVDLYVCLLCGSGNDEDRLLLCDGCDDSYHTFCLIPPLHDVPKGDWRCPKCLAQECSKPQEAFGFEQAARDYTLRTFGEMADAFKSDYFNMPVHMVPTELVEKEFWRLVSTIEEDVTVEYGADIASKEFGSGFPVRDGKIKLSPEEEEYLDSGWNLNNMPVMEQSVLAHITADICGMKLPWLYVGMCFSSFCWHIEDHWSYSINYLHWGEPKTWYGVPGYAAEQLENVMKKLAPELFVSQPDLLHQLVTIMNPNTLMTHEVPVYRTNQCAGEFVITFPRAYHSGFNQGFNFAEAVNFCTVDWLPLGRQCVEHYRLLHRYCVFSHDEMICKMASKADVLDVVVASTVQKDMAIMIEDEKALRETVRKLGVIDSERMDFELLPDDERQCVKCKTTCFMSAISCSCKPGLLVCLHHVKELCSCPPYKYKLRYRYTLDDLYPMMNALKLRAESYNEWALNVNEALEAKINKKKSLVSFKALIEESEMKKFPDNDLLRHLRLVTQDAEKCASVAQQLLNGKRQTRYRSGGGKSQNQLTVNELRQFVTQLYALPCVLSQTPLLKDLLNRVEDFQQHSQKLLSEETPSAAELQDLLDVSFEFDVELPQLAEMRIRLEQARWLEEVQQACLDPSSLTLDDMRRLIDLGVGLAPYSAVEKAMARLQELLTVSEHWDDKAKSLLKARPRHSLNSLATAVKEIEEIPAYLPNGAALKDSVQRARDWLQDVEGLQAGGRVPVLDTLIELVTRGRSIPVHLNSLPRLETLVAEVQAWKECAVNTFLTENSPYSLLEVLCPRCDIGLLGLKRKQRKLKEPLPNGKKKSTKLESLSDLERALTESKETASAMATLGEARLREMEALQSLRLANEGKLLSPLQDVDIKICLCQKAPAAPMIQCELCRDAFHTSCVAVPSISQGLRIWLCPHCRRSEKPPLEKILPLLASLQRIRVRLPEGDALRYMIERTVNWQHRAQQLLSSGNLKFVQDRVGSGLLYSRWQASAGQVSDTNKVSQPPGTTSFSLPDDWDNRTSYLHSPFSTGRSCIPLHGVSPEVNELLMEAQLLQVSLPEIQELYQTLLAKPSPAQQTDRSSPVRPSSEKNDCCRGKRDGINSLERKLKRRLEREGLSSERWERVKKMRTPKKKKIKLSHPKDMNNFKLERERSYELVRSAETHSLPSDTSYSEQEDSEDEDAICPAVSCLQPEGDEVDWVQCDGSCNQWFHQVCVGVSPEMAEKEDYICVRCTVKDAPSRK

For `Cc1cc(Cl)ccc1COc1ccnn1-c1cc(C(=O)O)ccn1`, the IC50 is 2 nM in data set [1], 630 nM in data set [3] and 2300 nM in data set [4]. Besides, the EC50 in data set [2] is 90 nM. This molecule showed a bioavailability in data set [5] of 55%. Also, the “inhibition (INH)” value in data set [6] was “Not Active”. The inhibition entry in the data set on Mus musculus is “Active”. The Drug uptake entry in data set [7] is recorded as “Active”.

The term IC50 denotes the concentration that inhibits the measured activity by half. As a reminder, the EC50 is the midpoint of the concentration-response curve. By bioavailability is commonly meant dose-corrected exposure relative to a reference, in per cent.

The values above are taken from ChEMBL document CHEMBL4219204, “Structure-based design and discovery of potent and selective KDM5 inhibitors” (Bioorg Med Chem Lett, 2018).
